Source: the supplement of paper PMC11150407

Key:
Experiment in all cases: area under dose-response viability curve (log dose) (AUC (arbitrary)); higher = less sensitive
Conditions in all cases: 72 h
Vincristine = compound: CC[C@]1(O)C[C@H]2CN(CCc3c([nH]c4ccccc34)[C@@](C(=O)OC)(c3cc4c(cc3OC)N(C=O)[C@H]3[C@@](O)(C(=O)OC)[C@H](OC(C)=O)[C@]5(CC)C=CCN6CC[C@]43[C@@H]65)C2)C1 [Vincristine]
Method: (§1)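 Primary AML blasts from patients (3q26 EVI1-high and other AML) were treated for 72 h with a dose series of each drug. Viability was measured with an ATP-based CellTiter-Glo assay. The area under the curve of the log-transformed dose-response data was computed in GraphPad Prism; a lower AUC means greater sensitivity.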

Entinostat = compound: Nc1ccccc1NC(=O)c1ccc(CNC(=O)OCc2cccnc2)cc1 [Entinostat]
Method: as §1

AR-42 = compound: CC(C)[C@H](C(=O)Nc1ccc(C(=O)NO)cc1)c1ccccc1 [AR-42]
Method: as §1

Daunorubicine = compound: COc1cccc2c1C(=O)c1c(O)c3c(c(O)c1C2=O)C[C@@](O)(C(C)=O)C[C@@H]3O[C@H]1C[C@H](N)[C@H](O)[C@H](C)O1 [Daunorubicine]
Method: as §1

Methotrexate = compound: CN(Cc1cnc2nc(N)nc(N)c2n1)c1ccc(C(=O)N[C@@H](CCC(=O)O)C(=O)O)cc1 [Methotrexate]
Method: as §1

Belinostat = compound: O=C(/C=C/c1cccc(S(=O)(=O)Nc2ccccc2)c1)NO [Belinostat]
Method: as §1

| Test System | area under dose-response viability curve (Vincristine) | area under dose-response viability curve (Entinostat) | area under dose-response viability curve (AR-42) | area under dose-response viability curve (Daunorubicine) | area under dose-response viability curve (Methotrexate) | area under dose-response viability curve (Belinostat) |
| --- | --- | --- | --- | --- | --- | --- |
| PR#002 (EVI1 status: EVI1High) | 179 | 145 | 132 | 110 | 232 | 179 |
| PR#003 (EVI1 status: EVI1High) | 162 | 142 | 112 | 68 | 239 | 156 |
| PR#004 (EVI1 status: EVI1High) | 171 | 84.7 | 78.8 | 63.5 | 237 | 121 |
| PR#005 (EVI1 status: EVI1High) | 156 | 107 | 156 | 87.5 | 198 | 138 |
| PR#006 (EVI1 status: EVI1High) | 136 | 120 | 120 | 57.7 | 248 | 138 |
| PR#007 (EVI1 status: EVI1High) | 186 | 172 | 163 | 110 | 245 | 157 |
| PR#008 (EVI1 status: EVI1High) | 116 | 82.3 | 55.7 | 15 | 195 | 81.8 |
| PR#010 (EVI1 status: EVI1Low) | 172 | 147 | 121 | 93.9 | 256 | 177 |
| PR#011 (EVI1 status: EVI1Low) | 196 | 200 | 188 | 132 | 226 | 209 |
| PR#012 (EVI1 status: EVI1Low) | 89.8 | 139 | 131 | 120 | 218 | 192 |
| PR#013 (EVI1 status: EVI1Low) | 193 | 153 | 130 | 68.1 | 233 | 169 |
| PR#014 (EVI1 status: EVI1Low) | 198 | 133 | 128 | 63.9 | 248 | 195 |
| PR#015 (EVI1 status: EVI1Low) | 128 | 145 | 149 | 37 | 248 | 227 |
| PR#016 (EVI1 status: EVI1Low) | 152 | 159 | 148 | 104 | 270 | 156 |
| PR#017 (EVI1 status: EVI1Low) | 204 | 191 | 163 | 89.5 | 237 | 160 |
| PR#018 (EVI1 status: EVI1Low) | 204 | 211 | 184 | 101 | 236 | 189 |

| Test System | area under dose-response viability curve (Vincristine) | area under dose-response viability curve (Entinostat) | area under dose-response viability curve (AR-42) | area under dose-response viability curve (Daunorubicine) | area under dose-response viability curve (Methotrexate) | area under dose-response viability curve (Belinostat) |
| --- | --- | --- | --- | --- | --- | --- |
| PR#019 (EVI1 status: EVI1Low) | 203 | 232 | 208 | 128 | 245 | 225 |
| PR#020 (EVI1 status: EVI1Low) | 128 | 182 | 130 | 61.9 | 248 | 246 |
| PR#021 (EVI1 status: EVI1Low) | 195 | 215 | 189 | 122 | 241 | 202 |
| PR#022 (EVI1 status: EVI1Low) | 175 | 185 | 140 | 59.5 | 244 | 161 |
| PR#023 (EVI1 status: EVI1High) | 140 | 162 | 139 | 138 | 240 | 165 |
| PR#024 (EVI1 status: EVI1High) | 97 | 167 | 106 | 66.1 | 249 | 122 |
| PR#025 (EVI1 status: EVI1Low) | 214 | 256 | 178 | 77.4 | 247 | 197 |
| PR#026 (EVI1 status: EVI1Low) | 90.2 | 205 | 155 | 85.1 | 241 | 189 |
| PR#027 (EVI1 status: EVI1Low) | 186 | 197 | 158 | 63.1 | 262 | 164 |
| PR#028 (EVI1 status: EVI1Low) | 116 | 198 | 164 | 142 | 252 | 182 |
| PR#029 (EVI1 status: EVI1Low) | 46.3 | 213 | 167 | 25.4 | 229 | 221 |
| PR#030 (EVI1 status: EVI1Low) | 147 | 237 | 158 | 88.5 | 233 | 180 |
| PR#031 (EVI1 status: EVI1Low) | 129 | 229 | 189 | 34.9 | 233 | 204 |
| PR#032 (EVI1 status: EVI1Low) | 92.1 | 144 | 170 | 58 | 258 | 148 |
| PR#033 (EVI1 status: EVI1Low) | 147 | 183 | 154 | 36.2 | 226 | 178 |
| PR#034 (EVI1 status: EVI1Low) | 202 | 195 | 142 | 192 | 233 | 160 |
